{
  "source": "paper PMC4567410",
  "about": "(Virology, 2015)",
  "key": {"HIV-1Ba-L": {"test_system": "HIV-1Ba-L", "assay": "HIV-1 Ba-L replication in PBMCs", "format": "cell-based", "conditions": "Human immunodeficiency virus 1, PBMC, 168 h"}, "HIV-1NL4-3 [1]": {"test_system": "HIV-1NL4-3", "assay": "HIV-1NL4-3 replication in H9", "format": "cell-based", "conditions": "H9 cells expressing A3G, 62.5 and 125 nM"}, "HIV-1NL4-3 [2]": {"test_system": "HIV-1NL4-3", "assay": "HIV-1NL4-3 replication in SupT1", "format": "cell-based", "conditions": "SupT1 T cells lacking A3G, 62.5 and 125 nM"}, "H9 cells": {"test_system": "H9 cells", "assay": "Cytotoxicity in H9 T cells", "conditions": "concentrations greater than 125 nM"}, "SupT1 T cells": {"test_system": "SupT1 T cells", "assay": "Cytotoxicity in SupT1 T cells", "conditions": "concentrations greater than 125 nM"}, "A3G [3]": {"test_system": "A3G", "format": "cell-based, human", "conditions": "for effect on A3G protein levels: absence of redoxal treatment"}, "HIV-1 89BZ167": {"test_system": "HIV-1 89BZ167", "assay": "HIV-1 89BZ167 replication in PBMCs", "format": "cell-based", "conditions": "HIV-1 isolate 89BZ167 in PBMCs, 7 days, RT assay"}, "HIV-1 91US001": {"test_system": "HIV-1 91US001", "assay": "HIV-1 91US001 replication in PBMCs", "format": "cell-based", "conditions": "HIV-1 isolate 91US001 in PBMCs, 7 days, RT assay"}, "HIV-1NL4-3 [4]": {"test_system": "HIV-1NL4-3", "assay": "HIV-1NL4-3 spreading infection in CEM cells", "format": "cell-based", "conditions": "CEM cells (high A3G); 312.5, 625, 1250 nM; 3, 6, 9 days"}, "HIV-1NL4-3 [5]": {"test_system": "HIV-1NL4-3", "assay": "HIV-1NL4-3 spreading infection in CEM-SS cells", "format": "cell-based", "conditions": "CEM-SS cells (very low A3G); 312.5, 625, 1250 nM"}, "[6]": {"test_system": "VSV-G pseudotyped NL4-3GFPΔEnv viruses", "format": "cell-based, HIV-1"}, "[7]": {"test_system": "VSV-G pseudotyped NL4-3GFPΔEnv viruses", "format": "cell-based, HIV-1", "remark": "listed apart in the source"}, "Vif [8]": {"test_system": "Vif", "assay": "Vif protein stability in transfected 293T cells, CHX time course", "format": "cell-based, HIV-1", "conditions": "1250 nM 36 h, then CHX"}, "Vif-Cul5 interaction": {"target": "Vif-Cul5 interaction (Human immunodeficiency virus type 1 group M subtype B, UniProt P12504)", "sequence (P12504 whole entry)": "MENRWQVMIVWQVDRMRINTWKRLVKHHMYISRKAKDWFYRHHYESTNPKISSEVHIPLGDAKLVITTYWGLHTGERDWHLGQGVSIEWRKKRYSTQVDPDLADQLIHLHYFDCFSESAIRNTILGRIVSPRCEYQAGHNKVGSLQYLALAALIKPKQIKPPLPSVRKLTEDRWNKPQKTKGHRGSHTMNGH", "assay": "Co-immunoprecipitation of Vif and Cul5 from 293T cells", "format": "cell-based", "conditions": "1250 nM, 40 h"}, "Vif-CBFβ interaction": {"target": "Vif-CBFβ interaction (Human immunodeficiency virus type 1 group M subtype B, UniProt P12504)", "sequence (P12504 whole entry)": "as above", "format": "cell-based", "conditions": "unpublished preliminary co-immunoprecipitation experiments"}, "A3G [9]": {"test_system": "A3G", "conditions": "infected CEM cells, 1250 nM, 6 days post infection"}, "Vif [10]": {"test_system": "Vif", "assay": "Western blot of Vif in HIV-1 infected CEM cell lysates", "conditions": "infected CEM cells, 1250 nM"}},
  "note": "Where two headings read alike, the source gives them in different places.",
  "data": [
    {"smiles": "COC(=O)c1ccc(O)c2nc3c(C=O)c(O)cc(O)c3nc12", "note": "[lomofungin]", "values": [
      {"measurement": "IC50", "setting": "HIV-1Ba-L", "result": 70, "unit": "nM"},
      {"measurement": "antiviral activity", "setting": "HIV-1NL4-3 [1]", "result": "strong antiviral activity"},
      {"measurement": "antiviral activity", "setting": "HIV-1NL4-3 [2]", "result": "not in SupT1 T cells"},
      {"measurement": "cytotoxicity", "setting": "H9 cells", "result": "significant cytotoxicity"},
      {"measurement": "cytotoxicity", "setting": "SupT1 T cells", "result": "significant cytotoxicity"}
    ]},
    {"smiles": "O=C(O)c1cc(=O)[nH]c(=O)[nH]1", "note": "[orotate]", "values": [
      {"measurement": "effect on A3G protein levels", "setting": "A3G [3]", "result": "no significant effect"}
    ]},
    {"smiles": "O=c1ccn([C@@H]2O[C@H](CO)[C@@H](O)[C@H]2O)c(=O)[nH]1", "note": "[uridine]", "values": [
      {"measurement": "effect on A3G protein levels", "setting": "A3G [3]", "result": "no significant effect"}
    ]},
    {"smiles": "COc1cc(-c2ccc(Nc3ccccc3C(=O)O)c(OC)c2)ccc1Nc1ccccc1C(=O)O", "note": "[redoxal]", "values": [
      {"measurement": "IC50", "setting": "HIV-1 89BZ167", "result": 590, "unit": "nM"},
      {"measurement": "IC50", "setting": "HIV-1 91US001", "result": 1740, "unit": "nM"},
      {"measurement": "inhibition of viral replication", "setting": "HIV-1NL4-3 [4]", "result": "inhibited viral replication in a dose-dependent manner"},
      {"measurement": "inhibition of viral replication", "setting": "HIV-1NL4-3 [5]", "result": "not CEM-SS cells"},
      {"measurement": "decrease in infectivity", "setting": "[6]", "result": "approximately 50%"},
      {"measurement": "virus production", "setting": "[7]", "result": "inhibited virus production"},
      {"measurement": "A3G protein levels", "setting": "A3G [3]", "result": "increased"},
      {"measurement": "steady-state levels of A3G protein in CHX time course", "setting": "A3G [3]; 293T cells with A3G-3xHA and pNL4-3GFPΔEnv, 1250 nM 36 h, then CHX 4 h", "result": "stabilized"},
      {"measurement": "increase of A3G protein levels", "setting": "A3G [3]; virus producer 293T cells expressing HIV-1 Vif, 1250 nM", "result": "approximately 50%"},
      {"measurement": "effect on Vif protein stability", "setting": "Vif [8]", "result": "no significant effect"},
      {"measurement": "effect on Vif-Cul5 interaction", "setting": "Vif-Cul5 interaction", "result": "no effect"},
      {"measurement": "effect on Vif-CBFβ interaction", "setting": "Vif-CBFβ interaction", "result": "did not disrupt"},
      {"measurement": "A3G protein levels", "setting": "A3G [9]", "result": "modest increase"},
      {"measurement": "Vif protein levels", "setting": "Vif [10]", "result": "reduced Vif protein levels"}
    ]}
  ]
}
